Measured values taken from paper PMC10303271, “Synthesis and Receptor Binding Studies of α5 GABAAR Selective Novel Imidazodiazepines Targeted for Psychiatric and Cognitive Disorders” (Molecules, 2023).

Key:
hERG K+ channel = molecular target: T1, hERG K+ channel (Homo sapiens, UniProt Q12809); test: PDSP radioligand binding at hERG; details: human; at 10,000 nM; N = 5; read-out: Binding Affinity at hERG % Inhibition (Primary Binding)
T1 construct: purchased NIMH Psychoactive Drug Screening Program (PDSP)
Method: (§1) To determine if any off-target receptor-binding effects are present, all the novel ligands were sent to the National Institute of Mental Health (NIMH), Psychoactive Drug Screening Program (PDSP). The ligands were screened over a panel of 47 receptors, ion channels, and transporters to determine any other possible interactions with […]. The hERG-binding was also determined. […] No binding of the test compounds to calcium channels was observed. […] It is necessary to screen the compounds for hERG-binding during the early process of drug discovery. The unintentional binding of many drugs to hERG can cause blockade of hERG K+ channels in the heart, which can cause many side effects including cardiac arrhythmias and sudden death. […] All of the α5 imidazodiazepines were tested for hERG-binding.
(§2) The NIMH PDSP assay protocol book [https://kidbdev.med.unc.edu/databases/PDSP%20Protocols%20II%202013-03-28.pdf accessed on 23 April 2023]. describes the protocols for primary and secondary radio-ligand binding assays. These assays were carried out in a final volume of 125 µL per well in the appropriate binding buffer.
(§3) The binding of a ligand to a receptor, ion channel, or transporter was determined in the […] of 10 µM of the appropriate reference compound. […] Plates were incubated in the dark for 90 min at rt, and the reactions were stopped by vacuum filtration onto 0.3% polyethyleneimine (PEI) soaked 96-well filter mats using a 96-well Filtermateharvester. This was followed by three washes with cold PBS buffer. Radioactivity was then counted on a Microbeta counter. Nonlinear regression was used to analyze the data with N = 6 replicates.

Alpha4Beta2 (Rat Brain) = molecular target: T2, Alpha4Beta2 (Rat Brain) (Rattus norvegicus, UniProt P09483+P12390); test: PDSP primary binding Alpha4Beta2 (Rat Brain); details: primary binding, 10,000 nM; last figure of the line = mean of the 4 before it; read-out: Alpha4Beta2 (Rat Brain), PDSP raw data, mean
T2 construct: purchased NIMH Psychoactive Drug Screening Program (PDSP)
Method: as §1, §2, §3

OT = molecular target: T3, OT (Homo sapiens, UniProt P30559); test: PDSP primary binding OT (Oxytocin); details: primary binding, 10,000 nM; last figure of the line = mean of the 4 before it; some tables list it twice; read-out: OT (also Oxytocin), PDSP raw data, mean
T3 construct: purchased NIMH Psychoactive Drug Screening Program (PDSP)
T3 sequence (P30559 1-389): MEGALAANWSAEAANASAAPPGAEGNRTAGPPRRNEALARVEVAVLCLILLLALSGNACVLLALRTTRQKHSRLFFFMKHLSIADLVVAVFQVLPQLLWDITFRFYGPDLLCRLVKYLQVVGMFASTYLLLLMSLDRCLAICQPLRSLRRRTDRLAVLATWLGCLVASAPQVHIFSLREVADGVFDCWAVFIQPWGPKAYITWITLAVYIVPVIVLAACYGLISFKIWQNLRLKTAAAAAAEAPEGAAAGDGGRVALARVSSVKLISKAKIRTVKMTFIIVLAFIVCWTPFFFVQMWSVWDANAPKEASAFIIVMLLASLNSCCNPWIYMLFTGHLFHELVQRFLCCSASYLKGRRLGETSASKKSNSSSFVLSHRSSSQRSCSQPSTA
Method: as §1, §2, §3

GABAA = test: PDSP primary binding GABAA; details: primary binding, 10,000 nM; last figure of the line = mean of the 4 before it; some tables list it twice
Method: as §1, §2, §3

V1B = molecular target: T4, V1B (Homo sapiens, UniProt P47901); test: PDSP primary binding V1B; details: primary binding, 10,000 nM; last figure of the line = mean of the 4 before it; read-out: V1B, PDSP raw data, mean
T4 construct: purchased NIMH Psychoactive Drug Screening Program (PDSP)
T4 sequence (P47901 1-424): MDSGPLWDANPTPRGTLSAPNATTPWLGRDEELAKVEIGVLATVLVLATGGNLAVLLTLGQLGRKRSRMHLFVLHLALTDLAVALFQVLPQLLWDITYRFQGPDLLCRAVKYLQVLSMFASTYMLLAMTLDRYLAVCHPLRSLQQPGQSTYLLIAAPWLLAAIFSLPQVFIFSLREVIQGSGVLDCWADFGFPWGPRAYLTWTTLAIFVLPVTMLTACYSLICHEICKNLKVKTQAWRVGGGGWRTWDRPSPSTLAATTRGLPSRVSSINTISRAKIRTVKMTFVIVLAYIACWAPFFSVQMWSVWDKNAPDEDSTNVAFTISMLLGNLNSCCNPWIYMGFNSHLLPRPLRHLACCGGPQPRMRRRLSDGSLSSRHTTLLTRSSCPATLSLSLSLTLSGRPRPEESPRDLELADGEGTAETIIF
Method: as §1, §2, §3

SERT = molecular target: T5, SERT (Homo sapiens, UniProt P31645); test: PDSP primary binding SERT; details: primary binding, 10,000 nM; last figure of the line = mean of the 4 before it; some tables list SERT twice; read-out: SERT, PDSP raw data, mean
T5 construct: purchased NIMH Psychoactive Drug Screening Program (PDSP)
Method: as §1, §2, §3

DAT = molecular target: T6, DAT (Homo sapiens, UniProt Q01959); test: PDSP primary binding DAT; details: 1.5 h, primary binding, 10,000 nM; last figure of the line = mean of the 4 before it; some tables list DAT twice; read-out: DAT, PDSP raw data, mean
T6 construct: purchased NIMH Psychoactive Drug Screening Program (PDSP)
Method: as §1, §2, §3

NOP = molecular target: T7, NOP (Homo sapiens, UniProt P41146); test: PDSP primary binding NOP; details: primary binding, 10,000 nM; last figure of the line = mean of the 4 before it
T7 construct: purchased NIMH Psychoactive Drug Screening Program (PDSP)
Method: as §1, §2, §3

AT2 = molecular target: T8, AT2 (Homo sapiens, UniProt P50052); test: PDSP primary binding AT2; details: primary binding, 10,000 nM; last figure of the line = mean of the 4 before it
T8 construct: purchased NIMH Psychoactive Drug Screening Program (PDSP)
Method: as §1
The NIMH PDSP assay protocol book [https://kidbdev.med.unc.edu/databases/PDSP%20Protocols%20II%202013-03-28.pdf accessed on 23 April 2023]. describes the protocols for primary and secondary radio-ligand binding assays. […]
The binding of a ligand to a receptor, ion channel, or transporter was determined in the […] of 10 µM of the appropriate reference compound. Nonspecific binding was also determined in the absence and presence of 10 µM of the appropriate reference compound. […] Radioactivity was then counted on a Microbeta counter. […]

T7 sequence (P41146 whole entry): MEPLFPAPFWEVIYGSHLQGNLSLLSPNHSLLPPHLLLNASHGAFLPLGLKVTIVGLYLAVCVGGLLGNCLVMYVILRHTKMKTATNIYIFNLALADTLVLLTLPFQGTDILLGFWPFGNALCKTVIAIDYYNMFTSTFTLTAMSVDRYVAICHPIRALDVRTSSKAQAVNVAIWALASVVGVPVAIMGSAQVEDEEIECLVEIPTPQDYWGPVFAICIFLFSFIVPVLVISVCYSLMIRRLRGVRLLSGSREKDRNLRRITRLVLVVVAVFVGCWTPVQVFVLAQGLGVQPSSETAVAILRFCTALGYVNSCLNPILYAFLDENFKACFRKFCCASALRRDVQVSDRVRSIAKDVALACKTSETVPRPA
T2 sequence (P09483 31-630): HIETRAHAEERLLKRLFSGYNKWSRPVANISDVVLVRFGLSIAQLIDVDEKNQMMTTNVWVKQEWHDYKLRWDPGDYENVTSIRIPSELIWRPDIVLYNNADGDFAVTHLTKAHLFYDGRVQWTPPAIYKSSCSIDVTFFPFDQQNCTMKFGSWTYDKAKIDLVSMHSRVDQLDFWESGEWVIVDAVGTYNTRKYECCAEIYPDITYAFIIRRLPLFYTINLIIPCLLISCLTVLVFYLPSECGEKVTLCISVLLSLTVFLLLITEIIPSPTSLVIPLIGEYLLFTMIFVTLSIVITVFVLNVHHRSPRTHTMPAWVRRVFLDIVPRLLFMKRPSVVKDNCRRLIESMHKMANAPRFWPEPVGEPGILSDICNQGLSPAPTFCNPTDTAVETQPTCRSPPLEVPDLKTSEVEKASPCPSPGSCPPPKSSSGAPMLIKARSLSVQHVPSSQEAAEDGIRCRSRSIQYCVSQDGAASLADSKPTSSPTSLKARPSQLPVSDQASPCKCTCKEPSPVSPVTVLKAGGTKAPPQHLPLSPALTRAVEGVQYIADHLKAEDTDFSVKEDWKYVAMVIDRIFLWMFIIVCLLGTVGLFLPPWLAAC
T2 sequence (P12390 25-500): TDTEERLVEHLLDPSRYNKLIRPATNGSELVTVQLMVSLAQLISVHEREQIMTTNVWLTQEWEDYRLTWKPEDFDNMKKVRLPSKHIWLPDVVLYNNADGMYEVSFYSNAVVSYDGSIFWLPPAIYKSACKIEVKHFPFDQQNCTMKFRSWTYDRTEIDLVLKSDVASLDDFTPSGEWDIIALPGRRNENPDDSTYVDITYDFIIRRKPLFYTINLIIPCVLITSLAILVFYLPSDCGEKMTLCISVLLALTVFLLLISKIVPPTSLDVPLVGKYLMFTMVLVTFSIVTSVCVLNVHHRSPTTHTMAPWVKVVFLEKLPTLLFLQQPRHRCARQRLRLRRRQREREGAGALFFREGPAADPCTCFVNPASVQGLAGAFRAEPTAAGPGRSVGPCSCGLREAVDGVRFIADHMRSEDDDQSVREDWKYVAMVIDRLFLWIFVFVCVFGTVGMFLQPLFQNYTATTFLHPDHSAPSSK
T6 sequence (Q01959 whole entry): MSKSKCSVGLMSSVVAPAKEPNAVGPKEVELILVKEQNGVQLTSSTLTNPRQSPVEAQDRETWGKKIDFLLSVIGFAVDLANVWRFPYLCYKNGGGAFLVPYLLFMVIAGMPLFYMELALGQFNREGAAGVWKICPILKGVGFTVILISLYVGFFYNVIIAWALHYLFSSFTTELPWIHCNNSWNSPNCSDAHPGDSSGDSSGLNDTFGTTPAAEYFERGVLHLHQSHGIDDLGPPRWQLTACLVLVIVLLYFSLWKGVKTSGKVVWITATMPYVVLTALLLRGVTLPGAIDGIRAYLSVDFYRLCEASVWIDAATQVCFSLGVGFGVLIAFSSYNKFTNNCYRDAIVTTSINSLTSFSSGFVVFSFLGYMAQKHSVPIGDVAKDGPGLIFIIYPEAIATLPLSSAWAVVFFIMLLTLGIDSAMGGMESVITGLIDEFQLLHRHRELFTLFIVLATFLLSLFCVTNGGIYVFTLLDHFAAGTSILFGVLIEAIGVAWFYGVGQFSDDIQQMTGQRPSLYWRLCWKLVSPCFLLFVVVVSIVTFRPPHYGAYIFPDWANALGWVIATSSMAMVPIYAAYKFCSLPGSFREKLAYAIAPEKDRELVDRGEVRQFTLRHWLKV
T5 sequence (P31645 whole entry): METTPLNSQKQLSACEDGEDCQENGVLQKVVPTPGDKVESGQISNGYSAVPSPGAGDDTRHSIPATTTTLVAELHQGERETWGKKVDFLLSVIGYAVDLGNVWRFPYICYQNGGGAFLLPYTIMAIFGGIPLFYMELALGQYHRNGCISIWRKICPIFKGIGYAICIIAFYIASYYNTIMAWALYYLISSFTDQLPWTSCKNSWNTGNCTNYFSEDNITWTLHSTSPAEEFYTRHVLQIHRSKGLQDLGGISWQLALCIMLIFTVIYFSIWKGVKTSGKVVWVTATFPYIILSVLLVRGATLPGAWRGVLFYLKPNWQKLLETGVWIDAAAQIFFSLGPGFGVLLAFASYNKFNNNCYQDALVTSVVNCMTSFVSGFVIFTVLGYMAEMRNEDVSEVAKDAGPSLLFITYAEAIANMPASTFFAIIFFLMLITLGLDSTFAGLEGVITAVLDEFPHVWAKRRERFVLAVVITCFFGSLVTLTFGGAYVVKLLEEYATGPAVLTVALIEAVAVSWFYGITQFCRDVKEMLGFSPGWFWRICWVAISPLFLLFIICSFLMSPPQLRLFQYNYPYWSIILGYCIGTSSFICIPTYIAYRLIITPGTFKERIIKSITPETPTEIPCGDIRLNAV
T1 sequence (Q12809 whole entry): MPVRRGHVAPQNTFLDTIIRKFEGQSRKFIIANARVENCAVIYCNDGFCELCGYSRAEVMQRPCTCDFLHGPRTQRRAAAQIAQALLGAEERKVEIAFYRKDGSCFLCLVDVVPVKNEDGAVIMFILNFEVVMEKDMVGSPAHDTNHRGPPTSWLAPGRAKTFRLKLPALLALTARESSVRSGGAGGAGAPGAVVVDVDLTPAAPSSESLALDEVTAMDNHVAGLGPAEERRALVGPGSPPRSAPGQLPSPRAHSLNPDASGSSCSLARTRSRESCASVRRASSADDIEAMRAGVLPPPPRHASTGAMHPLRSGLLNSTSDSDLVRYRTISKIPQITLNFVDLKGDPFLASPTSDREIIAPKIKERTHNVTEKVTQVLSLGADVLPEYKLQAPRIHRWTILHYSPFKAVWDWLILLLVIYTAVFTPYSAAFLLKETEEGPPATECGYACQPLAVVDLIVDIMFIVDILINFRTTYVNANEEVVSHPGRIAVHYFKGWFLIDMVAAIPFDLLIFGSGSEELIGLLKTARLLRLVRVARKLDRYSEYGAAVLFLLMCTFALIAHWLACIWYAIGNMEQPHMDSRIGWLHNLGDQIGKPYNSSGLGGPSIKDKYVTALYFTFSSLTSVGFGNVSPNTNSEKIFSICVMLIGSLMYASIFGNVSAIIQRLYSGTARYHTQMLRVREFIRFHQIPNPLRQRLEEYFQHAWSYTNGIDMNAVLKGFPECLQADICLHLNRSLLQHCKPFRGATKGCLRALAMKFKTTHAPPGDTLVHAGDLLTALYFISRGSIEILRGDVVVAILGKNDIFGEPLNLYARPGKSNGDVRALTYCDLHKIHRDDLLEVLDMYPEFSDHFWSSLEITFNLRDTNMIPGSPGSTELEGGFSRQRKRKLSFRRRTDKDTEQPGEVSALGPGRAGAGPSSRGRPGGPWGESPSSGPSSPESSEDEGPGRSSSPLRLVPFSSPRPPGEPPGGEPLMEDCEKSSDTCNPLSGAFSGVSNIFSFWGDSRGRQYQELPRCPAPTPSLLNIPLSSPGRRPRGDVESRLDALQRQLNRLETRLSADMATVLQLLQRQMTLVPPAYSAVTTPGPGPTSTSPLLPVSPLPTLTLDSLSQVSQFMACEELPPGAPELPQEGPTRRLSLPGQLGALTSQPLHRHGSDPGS
T8 sequence (P50052 whole entry): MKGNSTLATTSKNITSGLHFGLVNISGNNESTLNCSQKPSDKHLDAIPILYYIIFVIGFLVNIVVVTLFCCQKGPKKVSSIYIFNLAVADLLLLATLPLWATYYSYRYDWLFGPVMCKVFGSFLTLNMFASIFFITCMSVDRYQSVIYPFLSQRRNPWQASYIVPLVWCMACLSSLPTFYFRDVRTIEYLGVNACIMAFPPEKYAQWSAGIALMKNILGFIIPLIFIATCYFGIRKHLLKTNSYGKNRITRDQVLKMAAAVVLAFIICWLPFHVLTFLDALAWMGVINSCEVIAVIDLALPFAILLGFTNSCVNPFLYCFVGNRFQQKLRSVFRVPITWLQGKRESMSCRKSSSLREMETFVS

| Structure (SMILES) | inhibition at 90 min, 10000 nM (hERG K+ channel) | inhibition at 10 µM (Alpha4Beta2 (Rat Brain)) | inhibition at 10 µM (OT) | GABAA, PDSP raw data, mean (GABAA) | inhibition at 10 µM (V1B) | inhibition at 10 µM (SERT) | inhibition at 10 µM (DAT) | NOP, PDSP raw data, mean (NOP) | AT2, PDSP raw data, mean (AT2) |
| --- | --- | --- | --- | --- | --- | --- | --- | --- | --- |
| C#Cc1ccc2c(c1)C(c1ccccn1)=N[C@@H](C)c1c(C(=O)NC)ncn1-2 [Compound 23, (S)-8-Ethynyl-N,4-dimethyl-6-(pyridin-2′-yl)-4H-benzo[f]imidazo[1,5-a][1,4]diazepine-3-carboxamide] | -4.24 ± 3.47% | 2.71% | 47.4% | 23.24% | -4.18% | -7.1% |  |  |  |
| C[C@H]1N=C(c2ccccc2F)c2cc(-c3ccccc3)ccc2-n2cnc(C(=O)N(C)C)c21 [Compound 5, (R)-6-(2′-Fluorophenyl)-N,N,4-trimethyl-8-phenyl-4H-benzo[f]imidazo[1,5-a][1,4]diazepine-3-carboxamide] | -0.48 ± 4.52% | -5.7% |  | -4.01% | 1.4% | -9.27% | 29.7% |  |  |
| CCc1noc(-c2ncn3c2CN=C(c2ccccc2F)c2cc(C4CC4)ccc2-3)n1 [Compound 44, 5-(8-Cyclopropyl-6-(2′-fluorophenyl)-4H-benzo[f]imidazo[1,5-a][1,4]diazepin-3-yl)-3-ethyl-1,2,4-oxadiazole] | 33.2 ± 12.6% | -0.99% | 15.4% | 11.92% | 35.7% | 7.2% | 37.4% |  |  |
| CCc1noc(-c2ncn3c2[C@@H](C)N=C(c2ccccc2F)c2cc(C4CC4)ccc2-3)n1 [Compound 46, (R)-5-(8-Cyclopropyl-6-(2′-fluorophenyl)-4-methyl-4H-benzo[f]imidazo[1,5-a][1,4]diazepin-3-yl)-3-ethyl-1,2,4-oxadiazole] | 4.34 ± 3.92% | -5.79% | 11.4% | 19.52% | 2.67% | -3.28% | 22% | 7.5% |  |
| C#Cc1ccc2c(c1)C(c1ccccn1)=N[C@@H](C)c1c(C(=O)N(C)C)ncn1-2 [Compound 31, (S)-8-Ethynyl-N,N,4-trimethyl-6-(pyridin-2′-yl)-4H-benzo[f]imidazo[1,5-a][1,4]diazepine-3-carboxamide] | 0.95 ± 2.21% | 2.48% | 23.7% | 9.39% | 24.3% | 4.04% | 15.5% | -14.49% |  |
| CC(C)c1noc(-c2ncn3c2[C@@H](C)N=C(c2ccccc2F)c2cc(Cl)ccc2-3)n1 [Compound 37, (R)-5-(8-Chloro-6-(2′-fluorophenyl)-4-methyl-4H-benzo[f]imidazo[1,5-a][1,4]diazepin-3-yl)-3-isopropyl-1,2,4-oxadiazole] | 4.21 ± 10.8% | -0.61% | 10.5% |  | -15.4% |  | 37.5% | -10.12% | 12.03% |
| CCc1noc(-c2ncn3c2[C@@H](C)N=C(c2ccccc2F)c2cc(-c4ccccc4)ccc2-3)n1 [Compound 35, (R)-3-Ethyl-5-(6-(2′-fluorophenyl)-4-methyl-8-phenyl-4H-benzo[f]imidazo[1,5-a][1,4]diazepin-3-yl)-1,2,4-oxadiazole] | 37.3 ± 5.97% | -11.6% | 6.27% | 16.02% | 21% | 17.2% | 49.4% |  |  |
| C#Cc1ccc2c(c1)C(c1ccccc1F)=N[C@H](C)c1c(C(=S)N(C)C)ncn1-2 [Compound 33, (R)-8-Ethynyl-6-(2′-fluorophenyl)-N,N,4-trimethyl-4H-benzo[f]imidazo[1,5-a][1,4]diazepine-3-carbothioamide] | -4.4 ± 4.52% | -5.7% |  | -4.01% | 1.4% | -9.27% | 29.7% |  |  |
| C[C@H]1N=C(c2ccccc2F)c2cc(Cl)ccc2-n2cnc(-c3nc(C4CC4)no3)c21 [Compound 38, (R)-5-(8-Chloro-6-(2′-fluorophenyl)-4-methyl-4H-benzo[f]imidazo[1,5-a][1,4]diazepin-3-yl)-3-cyclopropyl-1,2,4-oxadiazole] | 1.86 ± 25.6% | 0.48% |  |  | -7.2% | 13.1% | 40% | -17% | 24.14% |
| C#Cc1ccc2c(c1)C(c1ccccc1Cl)=N[C@H](C)c1c(C(=O)NC)ncn1-2 [Compound 21, (R)-6-(2′-Chlorophenyl)-8-ethynyl-N,4-dimethyl-4H-benzo[f]imidazo[1,5-a][1,4]diazepine-3-carboxamide] | -5.73 ± 11.1% | 0.7% | -0.63% | 12.76% | 45.8% | 9.24% |  | -0.1% |  |
| C#Cc1ccc2c(c1)C(c1ccccc1Cl)=N[C@H](C)c1c(C(=O)N(C)CC)ncn1-2 [Compound 29] | -1.55 ± 10.1% | 0.03% | 41.8% | 25.77% | 11% | 6.07% |  |  |  |
| CCc1noc(-c2ncn3c2[C@@H](C)N=C(c2ccccc2F)c2cc(Cl)ccc2-3)n1 [Compound 36, (R)-5-(8-Chloro-6-(2′-fluorophenyl)-4-methyl-4H-benzo[f]imidazo[1,5-a][1,4]diazepin-3-yl)-3-ethyl-1,2,4-oxadiazole] |  | 3.25% | 14.7% | 13.12% | 22.9% | 3.09% | 11% |  |  |
